In patent US12421254B2, “KRAS modulators and uses thereof” (Quanta Therapeutics, Inc., priority 2023, dated 2025) one finds IC50 data, which are given here for 14 molecules.

One may read the IC50 as the midpoint of a concentration-inhibition curve.

In assay [1] the target is GST-tagged KRAS-G12D (2-169) (Homo sapiens, UniProt P01116, G12D). As to the kind of experiment: Nucleotide exchange assay (NEA), SOS-mediated, HTRF, KRAS G12D. The assay is classed as biochemical. As to conditions: Table 4; IC50 extracted at 30 min; 20 nM SOScat; read-out: NEA G12D IC50. Put shortly:
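SOS1cat-driven loading of fluorescent GTP-DY-647P1 (150 nM) onto GST-KRAS-G12D (2-169, 0.25 nM) read by time-resolved FRET; SOScat 20 nM, compound preincubated with KRAS 1 h at RT. Signal blanked to no-SOS reactions, normalized to DMSO; IC50 fitted from the 30-min read.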

Assay [2] concerns the target GST-tagged KRAS-G12V (2-169) (Homo sapiens, UniProt P01116, G12V). Description: Nucleotide exchange assay (NEA), SOS-mediated, HTRF, KRAS G12V. The assay is classed as biochemical. As to conditions: Table 4; IC50 extracted at 90 min; 80 nM SOS. Summed up:
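Exchange onto fluorescent GTP-DY-647P1 (150 nM final) catalysed by 80 nM SOS1cat was followed by Tb-anti-GST HTRF at RT for up to 90 min, after 1 h compound pre-incubation with 0.25 nM GST-tagged KRAS-G12V (2-169), pH 7.3. DMSO = 0%, no-SOS blank = 100%; 4-parameter IC50 taken at 90 min.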
(In general: In TR-FRET formats the signal depends on donor and acceptor labels being close together.)

Assay [3] relates to phospho-ERK in GP2D (KRAS-G12D) cells. Description: pERK In Cell Western (ICW) assay (Method B), GP2D. It counts as cell-based. Summed up:
(§1)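 After overnight attachment, cells received nine half-log compound concentrations for 3 hours, were fixed, permeabilized and probed with phospho-ERK antibody plus DRAQ5. Normalized pERK signal versus blank control yields IC50 via variable-slope four-parameter fit.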

In assay [4] the test system is phospho-ERK in SW620 (KRAS-G12V) cells. As to the kind of experiment: pERK In Cell Western (ICW) assay (Method B), SW620. It counts as cell-based. Summed up:
as §1

Setting [5] is: Homo sapiens, SW-620, 3 h, Table 4.

Chain of GST-tagged KRAS-G12D (2-169) (P01116 2-169 isoform P01116-2 G12D): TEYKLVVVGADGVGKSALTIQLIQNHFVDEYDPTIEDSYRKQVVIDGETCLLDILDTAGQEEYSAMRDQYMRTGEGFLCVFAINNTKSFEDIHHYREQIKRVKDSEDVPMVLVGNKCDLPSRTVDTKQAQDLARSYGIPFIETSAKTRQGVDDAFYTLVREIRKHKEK
Chain of GST-tagged KRAS-G12V (2-169) (P01116 2-169 isoform P01116-2 G12V): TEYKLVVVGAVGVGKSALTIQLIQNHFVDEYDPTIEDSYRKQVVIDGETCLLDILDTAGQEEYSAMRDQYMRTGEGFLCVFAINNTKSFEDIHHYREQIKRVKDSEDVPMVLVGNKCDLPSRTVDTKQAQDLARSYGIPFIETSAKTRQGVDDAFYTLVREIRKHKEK

As for `N#Cc1c(N)sc2c1C1(CC2)CN(c2nc(OC[C@@]34CCCN3C[C@H](F)C4)nc(N(CCO)Cc3cn[nH]c3)n2)C1` [Compound 137, 2-amino-1′-[4-[[(2R,8S)-2-fluoro-1,2,3,5,6,7-hexahydropyrrolizin-8-yl]methoxy]-6-[2-hydroxyethyl(1H-pyrazol-4-ylmethyl)amino]-1,3,5-triazin-2-yl]spiro[5,6-dihydrocyclopenta[b]thiophene-4,3′-azetidine]-3-carbonitrile], the IC50 in assay [1] lay within 100 to 1000 nM; in assay [2], 10 to 100 nM; in assay [3] (GP2d, 3 h, Table 4), 1000 to 20000 nM; in assay [4] (setting [5]), 1000 to 20000 nM.
For `N#Cc1c(N)sc2c1C1(CC2)CN(c2nc(OCC3(CN4CCOCC4)CC3)nc(N3CCCC(C#N)C3)n2)C1` (centres unmarked) [Compound 56, 2-amino-1′-[4-(3-cyano-1-piperidyl)-6-[[1-(morpholinomethyl)cyclopropyl]methoxy]-1,3,5-triazin-2-yl]spiro[5,6-dihydrocyclopenta[b]thiophene-4,3′-azetidine]-3-carbonitrile], the IC50 is 100 to 1000 nM in assay [1]; 10 to 100 nM in assay [2]; 100 to 1000 nM in assay [3] (GP2d, 3 h, Table 4); 1000 to 20000 nM in assay [4] (setting [5]).
With `N#Cc1c(N)sc2c1C1(CN(c3nc(OCC4(CN5CCOCC5)CC4)nc(N4CCNC[C@H]4C(F)F)n3)C1)SC2` [Compound 190, (S)-2′-amino-1-(4-(2-(difluoromethyl)piperazin-1-yl)-6-((1-(morpholinomethyl)cyclopropyl)methoxy)-1,3,5-triazin-2-yl)-6′H-spiro[azetidine-3,4′-thieno[3,4-b]thiophene]-3′-carbonitrile], the half-inhibitory concentration (IC50) is less than 10 nM in assay [1]; 10 to 100 nM in assay [2]; 100 to 1000 nM in assay [3] (GP2d, 3 h, Table 4); 1000 to 20000 nM in assay [4] (setting [5]).
Turning to `N#Cc1c(N)sc2c1C1(CCC2)CN(c2nc(OC[C@@]34CCCN3C[C@H](F)C4)nc(N3CCCC(C#N)CC3)n2)C1` (stereo partly drawn) [Compound 39, 2-amino-1′-[4-(4-cyanoazepan-1-yl)-6-[[(2R,8S)-2-fluoro-1,2,3,5,6,7-hexahydropyrrolizin-8-yl]methoxy]-1,3,5-triazin-2-yl]spiro[6,7-dihydro-5H-benzothiophene-4,3′-azetidine]-3-carbonitrile], the IC50 lay in the range of 10 to 100 nM in assay [1]; 10 to 100 nM in assay [2]; 1000 to 20000 nM in assay [3] (GP2d, 3 h, Table 4); 1000 to 20000 nM in assay [4] (setting [5]).
`N#Cc1c(N)sc2c1C1(CC2)CN(c2nc(OC[C@@]34CCCN3C[C@H](F)C4)nc(N3CCCOC[C@H]3CO)n2)C1` [Compound 69, 2-amino-1′-[4-[[(2R,8S)-2-fluoro-1,2,3,5,6,7-hexahydropyrrolizin-8-yl]methoxy]-6-[(3R)-3-(hydroxymethyl)-1,4-oxazepan-4-yl]-1,3,5-triazin-2-yl]spiro[5,6-dihydrocyclopenta[b]thiophene-4,3′-azetidine]-3-carbonitrile]: the half-inhibitory concentration (IC50) in assay [1] lay in the range of 10 to 100 nM; in assay [2], 10 to 100 nM; in assay [3] (GP2d, 3 h, Table 4), 1000 to 20000 nM; in assay [4] (setting [5]), 1000 to 20000 nM.
With `CC(CO)N(Cc1cccnc1N)c1nc(OC[C@@]23CCCN2C[C@H](F)C3)nc(N2CC3(CCc4sc(N)c(C#N)c43)C2)n1` (stereo partly drawn) [Compound 149, 2-amino-1′-[4-[(2-amino-3-pyridyl)methyl-(2-hydroxy-1-methyl-ethyl)amino]-6-[[(2R,8S)-2-fluoro-1,2,3,5,6,7-hexahydropyrrolizin-8-yl]methoxy]-1,3,5-triazin-2-yl]spiro[5,6-dihydrocyclopenta[b]thiophene-4,3′-azetidine]-3-carbonitrile], the IC50 is less than 10 nM in assay [1]; less than 10 nM in assay [2]; 1000 to 20000 nM in assay [3] (GP2d, 3 h, Table 4); 100 to 1000 nM in assay [4] (setting [5]).
In the case of `CCN(c1nc(OC[C@@]23CCCN2C[C@H](F)C3)nc(N2CC3(C2)SCc2sc(N)c(C#N)c23)n1)C(C)c1nonc1N` (stereo partly drawn) [Compound 171, 2-amino-1′-[4-[1-(4-amino-1,2,5-oxadiazol-3-yl)ethyl-ethyl-amino]-6-[[(2R,8S)-2-fluoro-1,2,3,5,6,7-hexahydropyrrolizin-8-yl]methoxy]-1,3,5-triazin-2-yl]spiro[6H-thieno[2,3-c]thiophene-4,3′-azetidine]-3-carbonitrile], the IC50 was 10 to 100 nM in assay [1]; less than 10 nM in assay [2]; 10 to 100 nM in assay [3] (GP2d, 3 h, Table 4); less than 10 nM in assay [4] (setting [5]).
`N#CCC1C=C(F)CN(c2nc(OCC3(CN4CCOCC4)CC3)nc(N3CC4(CCc5sc(N)c(C#N)c54)C3)n2)C1` (centres unmarked) [Compound 65, 2-amino-1′-[4-[3-(cyanomethyl)-5-fluoro-3,6-dihydro-2H-pyridin-1-yl]-6-[[1-(morpholinomethyl)cyclopropyl]methoxy]-1,3,5-triazin-2-yl]spiro[5,6-dihydrocyclopenta[b]thiophene-4,3′-azetidine]-3-carbonitrile]: the half-maximal inhibitory concentration (IC50) in assay [1] fell in the range of 100 to 1000 nM; in assay [2] it was 10 to 100 nM; in assay [3] (GP2d, 3 h, Table 4), 1000 to 20000 nM; in assay [4] (setting [5]), 1000 to 20000 nM.
In the case of `CC1(O)CCCCN(c2nc(OC[C@@]34CCCN3C[C@H](F)C4)nc(N3CC4(CCc5sc(N)c(C#N)c54)C3)n2)C1` (stereo partly drawn) [Compound 48, 2-amino-1′-[4-(3-hydroxy-3-methyl-azepan-1-yl)-6-[[(2R,8S)-2-fluoro-1,2,3,5,6,7-hexahydropyrrolizin-8-yl]methoxy]-1,3,5-triazin-2-yl]spiro[5,6-dihydrocyclopenta[b]thiophene-4,3′-azetidine]-3-carbonitrile], the IC50 in assay [1] is 10 to 100 nM; in assay [2] it was less than 10 nM; in assay [3] (GP2d, 3 h, Table 4), 100 to 1000 nM; in assay [4] (setting [5]), 100 to 1000 nM.
In the case of `C[C@H](c1cccnc1N)N(C)c1nc(OC[C@@]23CCCN2C[C@H](F)C3)nc(N2CC3(CCCc4sc(N)c(C#N)c43)C2)n1` [Compound 163, 2-amino-1′-[4-[[(1R)-1-(2-amino-3-pyridyl)ethyl]-methyl-amino]-6-[[(2R,8S)-2-fluoro-1,2,3,5,6,7-hexahydropyrrolizin-8-yl]methoxy]-1,3,5-triazin-2-yl]spiro[6,7-dihydro-5H-benzothiophene-4,3′-azetidine]-3-carbonitrile], the IC50 in assay [1] is less than 10 nM; in assay [2], less than 10 nM; in assay [3] (GP2d, 3 h, Table 4), less than 10 nM; in assay [4] (setting [5]), less than 10 nM.
For `CCN(c1nc(OC[C@@]23CCCN2C[C@H](F)C3)nc(N2CC3(C2)SCc2sc(N)c(C#N)c23)n1)C(C)c1nccnc1N` (single isomer, unassigned) [Compound 168B, 2-amino-1′-[4-[[(1*)-1-(3-aminopyrazin-2-yl)ethyl]-ethyl-amino]-6-[[(2R,8S)-2-fluoro-1,2,3,5,6,7-hexahydropyrrolizin-8-yl]methoxy]-1,3,5-triazin-2-yl]spiro[6H-thieno[3,4-b]thiophene-4,3′-azetidine]-3-carbonitrile], the IC50 was 10 to 100 nM in assay [1]; less than 10 nM in assay [2]; 100 to 1000 nM in assay [3] (Table 4, 3 hours); 10 to 100 nM in assay [4] (Table 4, 3 hours).
Consider `C[C@@]1(O)CCCN(c2nc(OC[C@@]34CCCN3C[C@H](F)C4)nc(N3CC4(C3)c3c(sc(N)c3C#N)CC4F)n2)C1` (stereo partly drawn) [Compound 71, 2-amino-5-fluoro-1′-[4-[[(2R,8S)-2-fluoro-1,2,3,5,6,7-hexahydropyrrolizin-8-yl]methoxy]-6-[(3R)-3-hydroxy-3-methyl-1-piperidyl]-1,3,5-triazin-2-yl]spiro[5,6-dihydrocyclopenta[b]thiophene-4,3′-azetidine]-3-carbonitrile], for which the IC50 in assay [1] is less than 10 nM; in assay [2] it was 10 to 100 nM; in assay [3] (GP2d, 3 h, Table 4), 100 to 1000 nM; in assay [4] (setting [5]), 100 to 1000 nM.
`N#CCC1(O)CCCN(c2nc(OCC3(CN4CCOCC4)CC3)nc(N3CC4(CCc5sc(N)c(C#N)c54)C3)n2)C1` (centres unmarked) [Compound 101, 2-amino-1′-[4-[3-(cyanomethyl)-3-hydroxy-1-piperidyl]-6-[[1-(morpholinomethyl)cyclopropyl]methoxy]-1,3,5-triazin-2-yl]spiro[5,6-dihydrocyclopenta[b]thiophene-4,3′-azetidine]-3-carbonitrile]: the IC50 was 10 to 100 nM in assay [1]; less than 10 nM in assay [2]; 100 to 1000 nM in assay [3] (GP2d, 3 h, Table 4); 1000 to 20000 nM in assay [4] (setting [5]).
On to `C[C@@]1(O)C[C@H](O)CN(c2nc(OC[C@@]34CCCN3C[C@H](F)C4)nc(N3CC4(CCc5sc(N)c(C#N)c54)C3)n2)C1` [Compound 67, 2-amino-1′-[4-[(3R,5S)-3,5-dihydroxy-3-methyl-1-piperidyl]-6-[[(2R,8S)-2-fluoro-1,2,3,5,6,7-hexahydropyrrolizin-8-yl]methoxy]-1,3,5-triazin-2-yl]spiro[5,6-dihydrocyclopenta[b]thiophene-4,3′-azetidine]-3-carbonitrile], for which the concentration for half-maximal inhibition (IC50) was 10 to 100 nM in assay [1]; 10 to 100 nM in assay [2]; 100 to 1000 nM in assay [3] (GP2d, 3 h, Table 4); not below 20000 nM in assay [4] (setting [5]).
